{
  "source": "ChEMBL document CHEMBL5726857",
  "about": "“Bacterial topoisomerase I inhibitors with antibacterial activity” (2019)",
  "key": {"[1]": {"experiment": "DNA Gyrase Supercoiling Inhibition Assay: DNA gyrase supercoiling assays were carried out by mixing the compounds and the enzyme in a similar manner as above (EcTopI relaxation inhibition assay) but in a gyrase assay buffer (35 mM Tris-HCl, 24 mM KCl, 4 mM MgCl2, 2 mM DTT, 1.75 mM ATP, 5 mM spermidine, 0.1 mg/mL BSA, 6.5% glycerol at pH 7.5), followed by the addition of 300 ng of relaxed covalently closed circular DNA (New England Biolabs, Ipswich, Mass., USA) to a final reaction volume of 20 μL. The samples were incubated at 37° C. for 30 minutes before being terminated by the addition of a buffer containing 5% SDS, 0.25% bromophenol blue, and 25% glycerol. The reactions were then analyzed by agarose gel electrophoresis.", "set-up": "species or system Escherichia coli"}, "[2]": {"experiment": "E. coli Topoisomerase I Relaxation Activity Inhibition Assay: The relaxation activity of E. coli topoisomerase I was assayed in a buffer containing 10 mM Tris-HCl, pH 8.0, 50 mM NaCl, 0.1 mg/mL gelatin, and 0.5 mM MgCl2. Half microliter from the appropriate stock solutions of compounds dissolved in the solvent (DMSO) or the solvent alone (control) was mixed with 9.5 μL of the reaction buffer containing 10 ng of enzyme before the addition of 10 μL of reaction buffer containing 200 ng of supercoiled pBAD/Thio plasmid DNA purified by cesium chloride gradient as substrate. Following incubation at 37° C. for 30 min, the reactions were terminated by the addition of 4 μL of a stop buffer (50% glycerol, 50 mM EDTA, and 0.5% (v/v) bromophenol blue), and analyzed by agarose gel electrophoresis. The gels were stained in ethidium bromide and photographed under UV light."}},
  "data": [
    {"smiles": "CN1CCN(c2c(F)cc3c(=O)c(C(=O)O)cn4c3c2Oc2cc(N)ccc2-4)CC1", "values": [
      {"measurement": "IC50", "setting": "[1]", "result": 23.4, "unit": "µM"}
    ]},
    {"smiles": "Nc1ccc2c(c1)Oc1c(N3CCNCC3)c(F)cc3c(=O)c(C(=O)O)cn-2c13", "values": [
      {"measurement": "IC50", "setting": "[1]", "result": 11.7, "unit": "µM"}
    ]},
    {"smiles": "Nc1ccc2c(c1)Oc1c(N3CCCCC3)c(F)cc3c(=O)c(C(=O)O)cn-2c13", "values": [
      {"measurement": "IC50", "setting": "[2]", "result": 3.9, "unit": "µM"}
    ]},
    {"smiles": "CCCCCNc1c(F)cc2c(=O)c(C(=O)O)cn3c2c1Oc1cc(N)ccc1-3", "values": [
      {"measurement": "IC50", "setting": "[2]", "result": 15.6, "unit": "µM"}
    ]}
  ]
}
